Target: G/T mismatch-specific thymine DNA glycosylase (Homo sapiens) (UniProt Q13569)
Assay: Inhibition of TDG in human HEK293T at 10 uM by Renilla luciferase based reporter assay relative to control
Format: cell-based

Chain of G/T mismatch-specific thymine DNA glycosylase (Homo sapiens) (Q13569 whole entry): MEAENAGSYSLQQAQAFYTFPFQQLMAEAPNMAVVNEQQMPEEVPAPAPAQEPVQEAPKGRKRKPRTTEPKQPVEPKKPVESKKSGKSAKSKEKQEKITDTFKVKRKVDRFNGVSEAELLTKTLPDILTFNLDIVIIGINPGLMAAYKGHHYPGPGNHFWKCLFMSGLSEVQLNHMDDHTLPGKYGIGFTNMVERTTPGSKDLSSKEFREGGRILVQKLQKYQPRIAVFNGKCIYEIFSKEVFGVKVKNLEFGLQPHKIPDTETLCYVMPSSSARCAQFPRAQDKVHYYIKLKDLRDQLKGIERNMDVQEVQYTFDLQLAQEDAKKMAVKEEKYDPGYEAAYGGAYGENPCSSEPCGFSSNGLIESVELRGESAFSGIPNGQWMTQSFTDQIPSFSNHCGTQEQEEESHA

inhibition: < 25%
Structure (SMILES): Cc1ccc(C2CCN(CCC(=O)c3ccc4c(c3)OCCO4)C2)cc1 (stereo unspecified)
